Columns and labels:
Format in all cases: in vivo, mdx mice
[1] = tested on: exon and intron 23 of the dystrophin gene; test: Example 2: intramuscular injection into TA muscle, dystrophin-positive fibres by immunohistochemistry
From the text: Here we aim to evaluate the potential of PNA AOs as splice correcting therapeutic agents for DMD, by studying their activity under a range of conditions in mdx mice carrying a nonsense mutation in exon 23 of the dystrophin gene. PNAs and PNA-pepide conjugates were studied following intramuscular delivery into adult (6-8 week old) mdx tibialis anterior (TA) muscles or via systemic intravenous tail vein delivery in mdx mice unless otherwise stated.
(§1) For intramuscular studies the TA muscle of each experimental mdx mouse was injected with a […] dose of PNA and PNA-peptide conjugates with saline at a final concentration of 125 μg/ml. For systemic intravenous injections, Various amount of PNA or PNA-peptide conjugates in 80 μl saline buffer were injected into tail vein of mdx mice at the final dose of 25 mg/kg, 50 mg/kg and 100 mg/kg, respectively. The animals were killed at various time points after injection by CO2 inhalation and tissues were removed and snap-frozen in liquid nitrogen-cooled isopentane and stored at −80° C.
Sections of 8 μm were cut from at least two-thirds of the muscle length of TA, quadriceps, gastrocnemius, biceps, abdominal wall and diaphragm muscles and cardiac muscle at 100 μm intervals. The sections were then examined for dystrophin expression with a polyclonal antibody 2166 against the dystrophin carboxyl-terminal region. The maximum number of dystrophin-positive fibres in one section was counted using the Zeiss AxioVision fluorescence microscope. The intervening muscle sections were collected either for RT-PCR analysis and Western blot or as serial sections for immunohistochemistry. Polyclonal antibodies were detected by goat-anti-rabbit IgGs Alexa Fluro 594 (Molecular Probe, UK). […]

[2] = tested on: exon and intron 23 of the dystrophin gene; test: Example 2: intramuscular injection, Western blot of dystrophin; settings: 5 ug intramuscular
Procedure: as §1
(§2) The collected sections were placed in a 1.5 ml polypropylene eppendorf tube (Anachem, UK) on dry ice. The tissue sections were lysed with 150 μl protein extraction buffer containing 125 mmol/l Tris-HCl (pH=6.8), 10% sodium dodecyl sulphate, 2 mol/l urea, 20% glycerol, and 5% 2-mercaptoethanol. […] The supernatant was collected and the protein concentration was quantified by Bradford assay (Sigma, UK). […] The bound primary antibody was detected by horseradish peroxidise-conjugated rabbit anti-mouse IgGs and the ECL Western Blotting Analysis system (Amersham Pharmacia Biosciences, UK). The intensity of the bands obtained from treated mdx muscles was measured by Image J software; the quantification is based on band intensity and area, and is compared with that from normal muscles of C57BL6 mice.

[3] = tested on: exon and intron 23 of the dystrophin gene; test: Example 2: systemic intravenous tail vein injection, dystrophin immunostaining of muscles
From the text: (§3) To develop AO splice correction therapy for DMD it is essential to establish effective systemic dystrophin correction since DMD is a systemic disease affecting all skeletal muscles, including the diaphragm, and cardiac muscle. Other AO chemistries, including 2′OMePS and PMO chemistries, have been reported to yield variable dystrophin splice correction following intravenous systemic delivery in mdx mice, with high systemic doses being required to detect appreciable efficacy. Here we wished to evaluate the potential of neutral PNA AOs for systemic splice correction in body-wide muscles, and initially evaluated a dose-response using three intravenous single PNA doses of 25, 50 and 100 mg/kg administered to 6 week old mdx mice via tail vein injections. […]
Sections of 8 μm were cut from at least two-thirds of the muscle length of TA, quadriceps, gastrocnemius, biceps, abdominal wall and diaphragm muscles and cardiac muscle at 100 μm intervals. […] The maximum number of dystrophin-positive fibres in one section was counted using the Zeiss AxioVision fluorescence microscope. […] Polyclonal antibodies were detected by goat-anti-rabbit IgGs Alexa Fluro 594 (Molecular Probe, UK). Polyclonal antibodies were detected by goat-anti-rabbit IgGs Alexa 594 (Molecular Probe, UK).

[4] = tested on: exon and intron 23 of the dystrophin gene; test: Example 2: systemic intravenous injection, Western blot of dystrophin; settings: intravenous 25, 50 and 100 mg/kg
From the text: as §3
as §2, with “ice.” for “ice. The tissue sections were lysed with 150 μl protein extraction buffer containing 125 mmol/l Tris-HCl (pH=6.8), 10% sodium dodecyl sulphate, 2 mol/l urea, 20% glycerol, and 5% 2-mercaptoethanol.”

5′-ggccaaaccteggcttacct-3′ [PNA]
number of dystrophin-positive fibres ([1]; 12-month old mdx mice, 5 ug intramuscular into TA, two weeks): 388±24
persistence of splice correction effect ([1]; two month old mdx mice, 5 ug intramuscular): greater than 20 weeks
number of dystrophin-positive fibres ([1]; two month old mdx mice, 5 ug intramuscular, 8 week time point (peak)): greater than 650
level of dystrophin protein restored (Western blot) ([2]; 8 week time point): about 20 % of normal levels
dystrophin protein (Western blot) ([2]; 20 weeks post administration): considerably reduced levels
dose response of dystrophin positive fibres ([3]; intravenous 25, 50 and 100 mg/kg): No evidence of a dose response
number of dystrophin positive fibres in peripheral muscles and heart ([3]; single intravenous 25, 50 and 100 mg/kg, 6 week old mdx mice, three weeks, all muscle groups except diaphragm and heart): low nevertheless showing a significant increase
dystrophin protein (Western blot) [4]: Under detectable level
